US7138361B2, “Herbicidal heterocycles” (E. I. du Pont de Nemours and Company, priority 2000, dated 2006)

Assays:
Format in all cases: in vivo
Sunflower [1] = assay: Test C preemergence; conditions: Rate 62 g/ha, scale 0 to 100
[2] = system: bermudagrass (Cynodon dactylon); assay: Test C preemergence; conditions: for Plant response rating (0 to 100 where 0 is no effect and 100 is complete control), Bermudagrass: Rate 500 g/ha, visual evaluation after 12 to 14 days
How it was run: (§1)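 Test chemicals, formulated in a non-phytotoxic solvent mixture with surfactant, were applied preemergence to planted seeds or postemergence to plants 2 to 18 cm tall (1- to 4-leaf stage). After 12 to 14 days in a greenhouse, injury was visually rated against untreated controls on a 0–100 scale.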

Sunflower [3] = assay: Test C preemergence; conditions: Rate 125 g/ha; scale 0 to 100, 0 no effect, 100 complete control
Nightshade = assay: Test C preemergence
[4] = system: johnsongrass (Sorghum halepense); assay: Test C preemergence; conditions: for Plant response rating (0 to 100), Johnsongrass: Rate 500 g/ha, visual evaluation after 12 to 14 days
How it was run: as §1

[5] = system: woolly cupgrass (Eriochloa villosa); assay: Test C preemergence; conditions: for Plant response rating (0 to 100), Cupgrass, Woolly: Rate 500 g/ha, visual evaluation after 12 to 14 days
How it was run: as §1

[6] = system: giant foxtail (Setaria faberii); assay: Test C preemergence; conditions: for Plant response rating (0 to 100), Foxtail, Giant: Rate 500 g/ha, visual evaluation after 12 to 14 days
How it was run: as §1

[7] = system: yellow nutsedge (Cyperus esculentus); assay: Test C preemergence; conditions: for Plant response rating (0 to 100), Nutsedge: Rate 500 g/ha, visual evaluation after 12 to 14 days
How it was run: as §1

soybean (Glycine max) = assay: Test C preemergence; conditions: for Plant response rating (0 to 100), Soybean: Rate 500 g/ha, visual evaluation after 12 to 14 days
How it was run: as §1

[8] = system: goosegrass (Eleusine indica); assay: Test C preemergence; conditions: for Plant response rating (0 to 100), Goosegrass: Rate 500 g/ha, visual evaluation after 12 to 14 days
How it was run: as §1

[9] = system: velvetleaf (Abutilon theophrasti); assay: Test C preemergence; conditions: for Plant response rating (0 to 100), Velvetleaf: Rate 500 g/ha, visual evaluation after 12 to 14 days
How it was run: as §1

[10] = system: common ragweed (Ambrosia elatior); assay: Test C preemergence; conditions: for Plant response rating (0 to 100), Ragweed, Common: Rate 500 g/ha, visual evaluation after 12 to 14 days
How it was run: as §1

[11] = system: lambsquarters (Chenopodium album); assay: Test C preemergence; conditions: for Plant response rating (0 to 100), Lambsquarters: Rate 500 g/ha, visual evaluation after 12 to 14 days
How it was run: as §1

[12] = system: cocklebur (Xanthium strumarium); assay: Test C preemergence; conditions: for Plant response rating (0 to 100), Cocklebur: Rate 500 g/ha, visual evaluation after 12 to 14 days
How it was run: as §1

[13] = system: crabgrass (Digitaria sanguinalis); assay: Test C preemergence; conditions: for Plant response rating (0 to 100), Crabgrass: Rate 500 g/ha, visual evaluation after 12 to 14 days
How it was run: as §1

[14] = system: pigweed (Amaranthus retroflexus); assay: Test C preemergence; conditions: for Plant response rating (0 to 100), Pigweed: Rate 500 g/ha, visual evaluation after 12 to 14 days
How it was run: as §1

[15] = system: wheat (Triticum aestivum); assay: Test B postemergence
How it was run: (§2)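 Visual injury scores, 0 = no effect to 100 = complete control, assigned against controls after 13 to 15 days in the greenhouse. Compounds formulated in non-phytotoxic solvent plus surfactant and applied to soil after planting (pre) or onto foliage of 1- to 4-leaf plants (post).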

[16] = system: giant foxtail (Setaria faberii); assay: Test B postemergence
How it was run: as §2

[17] = system: velvetleaf (Abutilon theophrasti); assay: Test B postemergence
How it was run: as §2

corn (Zea mays) = assay: Test B postemergence
How it was run: as §2

[18] = Rate 125 g/ha, scale 0 to 100, 0 no effect, 100 complete control
[19] = preemergence, Rate 62 g/ha, scale 0 to 100
[20] = preemergence, Rate 250 g/ha, scale 0 to 100, 0 no effect, 100 complete control
[21] = Rate 250 g/ha, scale 0 to 100, 0 no effect, 100 complete control
[22] = Rate 500 g/ha, scale 0 (no effect) to 100 (complete control), 13 to 15 days

SMILES: CCC(C)c1ccn(C2CCN(c3ccc(Br)c(OC)c3)C2=O)n1 (stereo not drawn) [Compound 142]
- Plant response rating, Sunflower (Sunflower [1]): 10
- Plant response rating, Bermudagrass [2, 18]: 100
- Plant response rating, Bermudagrass [2, 19]: 100
- Plant response rating (0 to 100 where 0 is no effect and 100 is complete control), Bermudagrass ([2]; preemergence): 100
- Plant response rating, Bermudagrass [2, 20]: 100
- Plant response rating, Sunflower (Sunflower [3]): 20
- Plant response rating, Nightshade (Nightshade; Rate 62 g/ha, scale 0 to 100): 90
- Plant response rating, Nightshade (Nightshade; [18]): 100
- Plant response rating, Nightshade (Nightshade; [21]): 100
- Plant response rating, Johnsongrass [4, 18]: 0
- Plant response rating, Johnsongrass [4, 19]: 0
- Plant response rating (0 to 100), Johnsongrass ([4]; preemergence): 100
- Plant response rating, Johnsongrass [4, 20]: 100
- Plant response rating, Cupgrass, Woolly [5, 18]: 100
- Plant response rating, Cupgrass, Woolly [5, 19]: 90
- Plant response rating (0 to 100), Cupgrass, Woolly ([5]; preemergence): 100
- Plant response rating, Cupgrass, Woolly [5, 20]: 100
- Plant response rating, Foxtail, Giant [6, 18]: 100
- Plant response rating, Foxtail, Giant [6, 19]: 100
- Plant response rating (0 to 100), Foxtail, Giant ([6]; preemergence): 100
- Plant response rating, Foxtail, Giant [6, 20]: 100
- Plant response rating, Nutsedge [7, 18]: 0
- Plant response rating, Nutsedge [7, 19]: 0
- Plant response rating (0 to 100), Nutsedge ([7]; preemergence): 20
- Plant response rating, Nutsedge [7, 20]: 0
- Plant response rating, Soybean (soybean (Glycine max); [18]): 70
- Plant response rating, Soybean (soybean (Glycine max); [19]): 30
- Plant response rating (0 to 100), Soybean (soybean (Glycine max); preemergence): 100
- Plant response rating, Soybean (soybean (Glycine max); [20]): 100
- Plant response rating, Goosegrass [8, 18]: 100
- Plant response rating, Goosegrass [8, 19]: 100
- Plant response rating (0 to 100), Goosegrass ([8]; preemergence): 100
- Plant response rating, Goosegrass [8, 20]: 100
- Plant response rating, Velvetleaf [9, 18]: 90
- Plant response rating, Velvetleaf [9, 19]: 10
- Plant response rating (0 to 100), Velvetleaf ([9]; preemergence): 100
- Plant response rating, Velvetleaf [9, 20]: 100
- Plant response rating, Ragweed, Common [10, 18]: 100
- Plant response rating, Ragweed, Common [10, 19]: 0
- Plant response rating (0 to 100), Ragweed, Common ([10]; preemergence): 100
- Plant response rating, Ragweed, Common [10, 20]: 100
- Plant response rating, Lambsquarters [11, 18]: 100
- Plant response rating, Lambsquarters [11, 19]: 100
- Plant response rating (0 to 100), Lambsquarters ([11]; preemergence): 100
- Plant response rating, Lambsquarters [11, 20]: 100
- Plant response rating, Cocklebur [12, 18]: 30
- Plant response rating, Cocklebur [12, 19]: 0
- Plant response rating (0 to 100), Cocklebur ([12]; preemergence): 60
- Plant response rating, Cocklebur [12, 20]: 30
- Plant response rating, Crabgrass [13, 18]: 100
- Plant response rating, Crabgrass [13, 19]: 100
- Plant response rating (0 to 100), Crabgrass ([13]; preemergence): 100
- Plant response rating, Crabgrass [13, 20]: 100
- Plant response rating, Pigweed [14, 18]: 100
- Plant response rating, Pigweed [14, 19]: 100
- Plant response rating (0 to 100), Pigweed ([14]; preemergence): 100
- Plant response rating, Pigweed [14, 20]: 100
- Plant response rating, Wheat [15, 18]: 0
- Plant response rating, Wheat [15, 22]: 0
- Plant response rating, Foxtail, Giant [16, 18]: 30
- Plant response rating, Foxtail, Giant [16, 22]: 90
- Plant response rating, Velvetleaf [17, 18]: 40
- Plant response rating, Velvetleaf [17, 22]: 70
- Plant response rating, Corn (corn (Zea mays); [18]): 0
- Plant response rating, Corn (corn (Zea mays); [22]): 30

SMILES: CCC(CC)c1ccn(C2CCN(c3ccc(Br)c(OC)c3)C2=O)n1 (stereo not drawn) [Compound 143]
- Plant response rating, Sunflower (Sunflower [1]): 60
- Plant response rating, Bermudagrass [2, 18]: 100
- Plant response rating, Bermudagrass [2, 19]: 100
- Plant response rating (0 to 100 where 0 is no effect and 100 is complete control), Bermudagrass ([2]; preemergence): 100
- Plant response rating, Bermudagrass [2, 20]: 100
- Plant response rating, Sunflower (Sunflower [3]): 80
- Plant response rating, Nightshade (Nightshade; Rate 62 g/ha, scale 0 to 100): 100
- Plant response rating, Nightshade (Nightshade; [18]): 100
- Plant response rating, Nightshade (Nightshade; [21]): 100
- Plant response rating, Johnsongrass [4, 18]: 60
- Plant response rating, Johnsongrass [4, 19]: 0
- Plant response rating (0 to 100), Johnsongrass ([4]; preemergence): 90
- Plant response rating, Johnsongrass [4, 20]: 90
- Plant response rating, Cupgrass, Woolly [5, 18]: 100
- Plant response rating, Cupgrass, Woolly [5, 19]: 90
- Plant response rating (0 to 100), Cupgrass, Woolly ([5]; preemergence): 100
- Plant response rating, Cupgrass, Woolly [5, 20]: 100
- Plant response rating, Foxtail, Giant [6, 18]: 100
- Plant response rating, Foxtail, Giant [6, 19]: 100
- Plant response rating (0 to 100), Foxtail, Giant ([6]; preemergence): 100
- Plant response rating, Foxtail, Giant [6, 20]: 100
- Plant response rating, Nutsedge [7, 18]: 0
- Plant response rating, Nutsedge [7, 19]: 0
- Plant response rating (0 to 100), Nutsedge ([7]; preemergence): 0
- Plant response rating, Nutsedge [7, 20]: 0
- Plant response rating, Soybean (soybean (Glycine max); [18]): 80
- Plant response rating, Soybean (soybean (Glycine max); [19]): 70
- Plant response rating (0 to 100), Soybean (soybean (Glycine max); preemergence): 100
- Plant response rating, Soybean (soybean (Glycine max); [20]): 80
- Plant response rating, Goosegrass [8, 18]: 100
- Plant response rating, Goosegrass [8, 19]: 100
- Plant response rating (0 to 100), Goosegrass ([8]; preemergence): 100
- Plant response rating, Goosegrass [8, 20]: 100
- Plant response rating, Velvetleaf [9, 18]: 70
- Plant response rating, Velvetleaf [9, 19]: 70
- Plant response rating (0 to 100), Velvetleaf ([9]; preemergence): 100
- Plant response rating, Velvetleaf [9, 20]: 90
- Plant response rating, Ragweed, Common [10, 18]: 100
- Plant response rating, Ragweed, Common [10, 19]: 90
- Plant response rating (0 to 100), Ragweed, Common ([10]; preemergence): 100
- Plant response rating, Ragweed, Common [10, 20]: 100
- Plant response rating, Lambsquarters [11, 18]: 100
- Plant response rating, Lambsquarters [11, 19]: 100
- Plant response rating (0 to 100), Lambsquarters ([11]; preemergence): 100
- Plant response rating, Lambsquarters [11, 20]: 100
- Plant response rating, Cocklebur [12, 18]: 50
- Plant response rating (0 to 100), Cocklebur ([12]; preemergence): 55
- Plant response rating, Cocklebur [12, 20]: 50
- Plant response rating, Crabgrass [13, 18]: 100
- Plant response rating, Crabgrass [13, 19]: 100
- Plant response rating (0 to 100), Crabgrass ([13]; preemergence): 100
- Plant response rating, Crabgrass [13, 20]: 100
- Plant response rating, Pigweed [14, 18]: 100
- Plant response rating, Pigweed [14, 19]: 100
- Plant response rating (0 to 100), Pigweed ([14]; preemergence): 100
- Plant response rating, Pigweed [14, 20]: 100
- Plant response rating, Wheat [15, 18]: 0
- Plant response rating, Wheat [15, 22]: 0
- Plant response rating, Foxtail, Giant [16, 18]: 30
- Plant response rating, Foxtail, Giant [16, 22]: 80
- Plant response rating, Velvetleaf [17, 18]: 50
- Plant response rating, Velvetleaf [17, 22]: 70
- Plant response rating, Corn (corn (Zea mays); [18]): 0
- Plant response rating, Corn (corn (Zea mays); [22]): 0
